Data: patent publication US20230168255A1, “UNBLENDING OF TRANSCRIPTIONAL CONDENSATES IN HUMAN REPEAT EXPANSION DISEASE” (Max-Planck-Gesellschaft zur Förderung der Wissenschaften …, priority 2020, published 2023)

Key:
[1] = molecular target: T1, Hoxd13 +7A IDR-Med1 IDR co-condensates (Homo sapiens, UniProt P35453, DUP65-71); assay: in vitro droplet assay, compound treatment of Hoxd13 IDR-Med1 IDR co-condensates; type: biochemical; details: purified Hoxd13 +7A IDR-mCherry mixed with MED1 IDR-GFP; FIG. 3G-J, FIG. 8
T1 construct: His tag (from pET45b(+); purified on a His column); made in house; host or cells: E. coli BL21(DE3)
T1 sequence (P35453 with tags, fused parts or gaps DUP65-71): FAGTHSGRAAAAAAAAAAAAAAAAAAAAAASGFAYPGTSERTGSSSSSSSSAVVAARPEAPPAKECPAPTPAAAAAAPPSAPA
Experimental: (§1) For image analysis, droplets were first automatically thresholded in either the mEGFP or mCherry channel using Zen Blue (Version 3.0), and then filtered by size, pixel intensity, and pixel deviation. Mean fluorescence intensities, area, and diameter of these primary regions were measured on both channels. For quantification and data visualization (FIG. 1J, 2H, 3B-E, 3H-J, 6F, 6H, 60, 6Q), raw values for diameter, mean intensity, or area were plotted as indicated in figure legends using R-Studio and the Directlabels package.
(§2) For in vitro droplet formation, recombinant mCherry or mEGFP fusion proteins were measured for concentration, and then diluted or mixed to suitable final concentrations in storage buffer. For microscopy, these solutions were further diluted 1:2 in either 20% or 10% PEG-8000 in deionized water (w/v). 10 μL of this suspension was pipetted onto chambered coverslips, and immediately imaged using a LSM880 confocal microscope equipped with a 63×1.40 oil DIC objective and AiryScan detector. All images were acquired from within the solution interface, and performed before droplets settled onto the bottom of the coverslip, as described in (Sabari et al., 2018). For droplet assays using preformed GFP-Med1 condensates (FIG. 3E-F), GFPMed1 droplets were allowed to form for 30 minutes at room temperature in the presence of 10% PEG-8000, before proceeding with co-condensation assays. For compound treatments of cocondensates (FIG. 3G-J), small molecules [ATP (Jena Bioscience, NU-1010), Mitoxantrone dihydrochloride (Sigma M6545), (±)-α-lipoic acid (Sigma 62320), and lipoamide, (Medchemexpress HY-B1142)] were directly diluted into droplet mixtures with or without vehicle (DMSO, Sigma D2650) to the desired final concentrations.

[2] = test system: Hoxd13 puncta in limb bud cells; assay: 1,6-hexanediol treatment of limb bud cells, Hoxd13 immunofluorescence; type: cell-based, mouse; details: 6% for 1 min; limb bud cells expressing +7A Hoxd13 (spdh) versus wt
Experimental: 1,6-hexanediol treatment: Isolated limb bud cells attached to fibronectin coated glass coverslips were treated with 6% or 0% hexanediol (Sigma, 240117) in 1 mL cell culture media for 1 minute at 37° C. After treatment, cells were washed with 1 mL of PBS, and immediately fixed in 4% paraformaldehyde in PBS for 10 min. Fixed cells were washed and then stored at 4° C. until processing for immunofluorescence and microscopy.
Isolated limb bud cells, Kelly cells, and SH-SY5Y cells attached to coated glass coverslips were fixed in 4% paraformaldehyde (PFA) (Sigma-Aldrich, P6148) in PBS for 10 min and stored at 4° C. in PBS or processed immediately. Cells were permeabilized in 0.1% Triton X-100 (Thermo Scientific, 85111) in PBS for 10 min at RT. […]
Hoxd13 puncta detected in fixed cell immunofluorescence (FIG. 4C-D) were analyzed using a similar workflow described above. Nuclear regions were automatically detected in the Zen Blue (Zeiss) software package using the DAPI counterstain signal. Puncta were segmented on morphology, and then filtered based on fluorescence intensity and circularity. […] Values for nuclear area, Hoxd13 puncta area, Hoxd13 puncta mean fluorescence intensity, and Hoxd13 puncta count were measured for 120 wild type cells, 143 1-6 HD treated wild type cells, 63 spdh cells, and 62 1-6 HD treated spdh cells.

[3] = test system: Hoxd13 +7A IDR-Med1 IDR co-condensates; assay: in vitro droplet assay, compound treatment of Hoxd13 IDR-Med1 IDR co-condensates; type: biochemical; details: summary statement; TFs containing disease-mutations
Experimental: as §1, §2

Row | Compound | reblending of co-condensates (ratio of GFP and mCherry fluorescence in HOXD13 IDR-mCherry containing droplets) [1] | sensitivity of Hoxd13 puncta to 1,6-HD [2] | composition of heterotypic condensates formed by Cluster 1 TFs with transcriptional co-activators (co-activator and TF content) [3]
1 | O=C(O)CCCCC1CCSS1 (racemic) [lipoic acid, (±)-α-lipoic acid] | failed to reblend |  | 
2 | OCCCCCCO [1,6-HD, 1,6-hexanediol] |  | considerably reduced sensitivity | 
3 | Nc1ncnc2c1ncn2[C@@H]1O[C@H](COP(=O)(O)OP(=O)(O)NP(=O)(O)O)[C@@H](O)[C@H]1O [APPNP, adenosine-5′-[(β,γ)-imido]triphosphate] | capable of reblending |  | effective
4 | NC(=O)CCCCC1CCSS1 (stereo not shown) [lipoamide] | failed to reblend |  | 
5 | adenosine tri-phosphate [ATP] | reblended Hoxd13 +7A IDR-Med1 IDR co-condensates in a dose dependent manner |  | revert the compositional alteration
